According to publication PMC6950567, “Evaluation of Marine Diindolinonepyrane in Vitro and in Vivo: Permeability Characterization in Caco-2 Cells Monolayer and Pharmacokinetic Properties in Beagle Dogs” (Marine Drugs, 2019):
Entries after “also recorded” stand apart in the source; their conditions may differ. Where two headings read alike, the source gives them in different places.

Experiments:
P-gp = target: T1, P-gp (Homo sapiens, UniProt P08183); experiment: P-gp substrate assessment from Caco-2 bidirectional transport; assay type: in vitro ADME; details: suggested from Caco-2 transport with 0.1% BSA
T1 construct: host or cells: Caco-2
Experimental: The Caco-2 cell model was established successfully, and the transwell plate was then rinsed with HBSS solution three times and cultured in an incubator at 37 °C for 30 min to remove the interfering substances on the cell surface. For transfer in the AP→BL direction, 0.075 mL drug solution was added to the AP side as the supply pool, and 0.25 mL HBSS solution was added to the BL side as the receiving pool. In the BL→AP direction, 0.25 mL compound solution was added to the BL side as the supply pool, and 0.075 mL HBSS solution was added to the AP side as the receiving pool. The transwell plate was then cultured in an incubator at 37 °C for 2 h. Samples on the AP side and BL side were collected, respectively. Then, acetonitrile containing an internal label was added to each upper chamber to lyse transport membranes. The total recovery was calculated by collecting the amount of lead compound absorbed on the membrane surface or accumulated in the cell. Finally, the concentration of each sample was calculated as the ratio of the peak area between the compound and the inner target through mass spectrum analysis (API 4000). […] Vr is the volume in the receiving hole (mL); A is the transport membrane area; and C0 is the compound initiation concentration (µM). […]

[1] = Short-term stability in beagle dog plasma; assay type: in vitro ADME; details: 24 h, residual/initial
Experimental: The stability of 2,5-BHPA was assayed at 1, 100, and 400 mg/L. The short-term stability of 2,5-BHPA stored at 37 °C was determined after 24 h. Stability was defined as the amount of 2,5-BHPA residual after 24 h divided by the initial amount.

[2] = Pharmacokinetics after intravenous injection in beagle dogs; assay type: in vivo; details: for Cmax / MRT / clearance / half-life: male, dog, whole blood
Experimental: Male beagle dogs (SPF, 10.2–10.8 kg, aged 2 years) were provided by the Xingang Experimental Animal Co., Ltd. (Shanghai, China). All dogs were fed with standard laboratory food and water ad libitum at least 3 days prior to the experiments in an environmentally controlled room (12 h dark-light cycle; ~25 °C, 60% humidity, GB14925-2001). All protocols and procedures were approved by the Institutional Animal Care and Use Committee of Shanghai Ocean University (Approval number: 13-0012). The blood and tissues of the dogs were removed while the dogs were ether anesthetized. Their plasma was collected from the fossa orbitalis vein. Every effort was made to minimize animal pain and suffering.
2,5-BHPA was dissolved in normal saline with NaHCO3 as a solvent (2,5-BHPA/NaHCO3, m/m, 1:1), which was agitated overnight on a magnetic stirrer. Subsequently, it was diluted to different concentrations, filtered, and stored in a refrigerator at 4 °C. The dose was adjusted according to the body weight of the beagle dogs in a volume of 200 µL, and 2,5-BHPA was administered by intravenous injection (7.5, 5.0, and 2.5 mg/kg). Subcutaneous injection in the forearm was used in the experiment.
Nine dogs were randomly divided into three groups (n = 3) and fasted for 24 h with water ad libidum. 2,5-BHPA was administered by intravenous injection (7.5, 5.0, and 2.5 mg/kg). The volume of the three sample levels was identical. The blood samples of 200 µL were drawn at 0, 1, 5, 15, 30, 40, 60, 120, and 240 min after drug treatment, and the samples were immediately stored with 1.8 mL of methanol (methanol:blood = 9:1, v/v). The samples were mixed and centrifuged at 5000× g for 15 min at RT, and the supernatants were filtered for HPLC analysis.
The data were processed with Microsoft Excel 2013 edited by Microsoft (Seattle, WA, USA) and SPSS V25.0 edited by SPSS (Chicago, IL, USA). PKsolver V2.0 edited by China Pharmaceutical University (Nanjing, China) was used to calculate the pharmacokinetic parameters and the compartment model. The image was processed with Origin 9.0 software edited by Origin Lab (Northampton, MA, USA).

[3] = design: method as in PMID 24216275; details: rats, cited from earlier work
fibrinolytic enzyme = test system: fibrinolytic enzyme; design: method as in earlier work; details: cited from earlier work
[4] = beagle dogs, intravenous, 2.5 mg·kg^−1
[5] = beagle dogs, intravenous, 5.0 mg·kg^−1
[6] = beagle dogs, intravenous, 7.5 mg·kg^−1

T1 sequence (P08183 whole entry): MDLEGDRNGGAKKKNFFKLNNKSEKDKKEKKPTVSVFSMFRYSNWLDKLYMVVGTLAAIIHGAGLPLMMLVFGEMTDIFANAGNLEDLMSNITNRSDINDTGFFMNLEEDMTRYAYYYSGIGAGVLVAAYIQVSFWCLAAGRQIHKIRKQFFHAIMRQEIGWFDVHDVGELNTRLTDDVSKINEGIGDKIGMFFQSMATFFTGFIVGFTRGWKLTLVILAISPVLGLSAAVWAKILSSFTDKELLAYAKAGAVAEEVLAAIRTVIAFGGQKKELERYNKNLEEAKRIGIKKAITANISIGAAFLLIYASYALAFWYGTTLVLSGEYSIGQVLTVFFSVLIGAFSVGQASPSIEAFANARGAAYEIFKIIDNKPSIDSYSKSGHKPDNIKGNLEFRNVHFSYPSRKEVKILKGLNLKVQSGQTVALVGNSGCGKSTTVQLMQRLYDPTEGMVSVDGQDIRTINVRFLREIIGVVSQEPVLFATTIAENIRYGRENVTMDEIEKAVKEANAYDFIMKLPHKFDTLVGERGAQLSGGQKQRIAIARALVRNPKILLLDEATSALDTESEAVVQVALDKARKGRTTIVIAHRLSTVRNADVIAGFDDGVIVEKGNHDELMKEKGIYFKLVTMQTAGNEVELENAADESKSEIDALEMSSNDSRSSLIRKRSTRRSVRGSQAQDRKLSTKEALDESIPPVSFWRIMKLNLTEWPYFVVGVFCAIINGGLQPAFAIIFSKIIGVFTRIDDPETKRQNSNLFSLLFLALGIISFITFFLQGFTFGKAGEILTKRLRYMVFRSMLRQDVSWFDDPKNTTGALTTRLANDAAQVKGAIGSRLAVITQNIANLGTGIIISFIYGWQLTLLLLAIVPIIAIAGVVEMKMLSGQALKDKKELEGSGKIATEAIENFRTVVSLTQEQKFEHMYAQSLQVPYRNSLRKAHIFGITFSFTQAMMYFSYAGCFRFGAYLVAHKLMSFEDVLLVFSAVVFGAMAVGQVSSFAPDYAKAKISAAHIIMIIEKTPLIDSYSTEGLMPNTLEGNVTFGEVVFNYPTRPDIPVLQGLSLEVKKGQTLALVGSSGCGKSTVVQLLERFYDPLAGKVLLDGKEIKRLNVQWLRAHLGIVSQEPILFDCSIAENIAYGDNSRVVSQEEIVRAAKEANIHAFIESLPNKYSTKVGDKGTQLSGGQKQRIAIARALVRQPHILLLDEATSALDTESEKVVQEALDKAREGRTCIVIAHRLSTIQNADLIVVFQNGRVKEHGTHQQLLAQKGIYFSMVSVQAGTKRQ

Question: Which “substrate of P-gp” value (P-gp) does the source give for CC(C)=CCCC(C)=CCCC1(C)Oc2c(c(O)cc3c2CN(CCCC(C(=O)O)N2Cc4c(cc(O)c5c4OC(C)(CCC=C(C)CCC=C(C)C)C(O)C5)C2=O)C3=O)CC1O (centres unmarked) [2,5-BHPA, 2,5-Bis-[8-(4,8-dimethyl-nona-3,7-dienyl)-5,7-dihydroxy-8-methyl-3-keto-1,2,7,8-tertahydro-6H-pyran[a]isoindol-2-yl]-pentanoic acid] here?
Answer: not a substrate of P-gp

Question: What about the Stability ([1]; 1.0 μg·mL^−1, 37 °C) of the same compound?
Answer: 94.69 ± 5.37%

Question: What about the Stability ([1]; 100 μg·mL^−1, 37 °C) of the same compound?
Answer: 98.39 ± 2.25%

Question: What about the Stability ([1]; 400 μg·mL^−1, 37 °C) of the same compound?
Answer: 97.63 ± 5.91%

Question: And the K10 [2, 4]?
Answer: 0.055 ± 0.021 min⁻¹

Question: What about the K12 [2, 4] of the same compound?
Answer: 0.009 ± 0.004 min⁻¹

Question: And the K21 [2, 4]?
Answer: 0.018 ± 0.001 min⁻¹

Question: What about the K10 [2, 5] of the same compound?
Answer: 0.075 ± 0.012 min⁻¹

Question: And the K12 [2, 5]?
Answer: 0.017 ± 0.002 min⁻¹

Question: And the K21 [2, 5]?
Answer: 0.018 ± 0.001 min⁻¹

Question: And the K10 [2, 6]?
Answer: 0.051 ± 0.015 min⁻¹

Question: What about the K12 [2, 6] of the same compound?
Answer: 0.007 ± 0.004 min⁻¹

Question: And the K21 [2, 6]?
Answer: 0.017 ± 0.003 min⁻¹

Question: And the “compartment model of plasma concentration-time curves” value ([2]; beagle dogs, intravenous, 7.5, 5.0, 2.5 mg·kg^−1, weight = 1/c^2)?
Answer: fitted well to a two-compartment model; also recorded: consistent with the two-compartment model

Question: And the “half-life (T1/2) in dogs compared with rats” value ([2]; dogs (this study) versus rats [14])?
Answer: about two times longer than in rats

Question: And the “dose linearity of pharmacokinetics” value ([2]; dogs, intravenous, dose range 2.5-7.5 mg/kg, from CL and MRT)?
Answer: linear pharmacokinetic characteristics

Question: What about the Cmax [2, 4] of the same compound?
Answer: 13600 ± 2760 ng/mL

Question: And the MRT [2, 4]?
Answer: 28.7 min

Question: What about the clearance [2, 4] of the same compound?
Answer: 9.2 ± 0.6 mL/min/kg

Question: And the half-life [2, 4]?
Answer: 49 ± 2 min

Question: And the Cmax [2, 5]?
Answer: 48600 ± 5530 ng/mL

Question: What about the MRT [2, 5] of the same compound?
Answer: 26.2 min

Question: What about the clearance [2, 5] of the same compound?
Answer: 7.1 ± 0.8 mL/min/kg

Question: And the half-life [2, 5]?
Answer: 48 ± 2 min

Question: And the Cmax [2, 6]?
Answer: 56500 ± 6230 ng/mL

Question: And the MRT [2, 6]?
Answer: 28.2 min

Question: And the clearance [2, 6]?
Answer: 6.2 ± 0.4 mL/min/kg

Question: And the half-life [2, 6]?
Answer: 49 ± 2 min

Question: What about the half-life ([3]; intravenous (IV) bolus) of the same compound?
Answer: ~ 22 min

Question: What about the “detection in the brain” value [3] of the same compound?
Answer: not the case in rats

Question: And the “tissue with the highest concentration level (liver)” value [3]?
Answer: same as in rats

Question: What about the fibrinolytic activity (fibrinolytic enzyme) of the same compound?
Answer: has been shown to have fibrinolytic activity
